Measured values: PubChem BioAssay AID1259411 (Chemical Carcinogenesis Research Information System (CCRIS), 2018)
The source made the active and inactive calls. How the calls were made is not given here.

Test system: rodent carcinogenicity bioassays, tumor incidence
Experiment: CCRIS carcinogenicity studies
In short: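 NCI-built, expert-reviewed records of carcinogenicity and related test outcomes (mutagenicity, tumor promotion/inhibition) compiled from published and report sources, historical span 1985-2011, not updated.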

Cc1c(C(=O)O)c(O)cc2c1C(=O)c1c(O)c([C@@H]3O[C@@H](CO)[C@H](O)[C@@H](O)[C@H]3O)c(O)c(O)c1C2=O
carcinogen call (Species: RAT, Strain/Sex: WISTAR/FEMALE, Route: ORAL, Dose: 0, 50, 150, 500 MG/KG/D IN BASAL DIET TO PUPS OF PARENTS GIVEN THE SAME DIETARY DOSE LEVELS FOR 60 D PRIOR TO MATING AND, Dose: 0, 50, 150, 500 MG/KG/D IN BASAL DIET TO PUPS OF PARENTS GIVEN THE SAME DIETARY DOSE LEVELS FOR 60 D PRIOR TO MATING AND): inactive; negative
carcinogen call (Species: RAT, Strain/Sex: WISTAR/MALE, Route: ORAL, Dose: 0, 50, 150, 500 MG/KG/D IN BASAL DIET TO PUPS OF PARENTS GIVEN THE SAME DIETARY DOSE LEVELS FOR 60 D PRIOR TO MATING AND, Dose: 0, 50, 150, 500 MG/KG/D IN BASAL DIET TO PUPS OF PARENTS GIVEN THE SAME DIETARY DOSE LEVELS FOR 60 D PRIOR TO MATING AND): inactive; negative

CCN(CC(=O)O)N=O
carcinogen call (Species: MOUSE, Strain/Sex: BALB/C/MALE, Route: ORAL, Dose: 0, 1000, 2000 PPM IN DRINKING WATER FOR 2 WK (STUDY DURATION: 52 WK), Dose: 0, 1000, 2000 PPM IN DRINKING WATER FOR 2 WK (STUDY DURATION: 52 WK)): inactive; negative
carcinogen call (Species: RAT, Strain/Sex: WISTAR/MALE, Route: ORAL, Dose: 0, 1000, 2000 PPM IN DRINKING WATER FOR 2 WK (STUDY DURATION: 52 WK), Dose: 0, 1000, 2000 PPM IN DRINKING WATER FOR 2 WK (STUDY DURATION: 52 WK)): inactive; negative

CC(=O)Nc1ccc(/C=C/c2ccccc2)cc1
carcinogen call (Species: RAT, Strain/Sex: HOLTZMAN/MALE, Route: ORAL, Dose: 0, 0.0046% IN DIET FOR WK 0-13 (STUDY DURATION: 40 WK), Tumor Site: Type of Lesion: EAR DUCT GLAND: CARCINOMA): active; positive

Nc1ccc(C(=O)Nc2ccccc2N)cc1
carcinogen call (Species: RAT, Strain/Sex: CD-1/FEMALE, Route: GAVAGE, Dose: 0, 1, 3, 9 (WK 1-25), 6 (WK 26-46), 5 (WK 47-106) MG/KG IN 0.8% METHOCEL (TOTAL VOLUME 0.2-0.5 ML/RAT 2/WK FOR 105 WK (M, Dose: 0, 1, 3, 9 (WK 1-25), 6 (WK 26-46), 5 (WK 47-106) MG/KG IN 0.8% METHOCEL (TOTAL VOLUME 0.2-0.5 ML/RAT 2/WK FOR 105 WK (M, Tumor Site: Type of Lesion: ADRENAL GLAND: TUMOR, OVARIES: TUMOR, VAGINA: TUMOR, Tumor Site: Type of Lesion: ADRENAL GLAND: TUMOR, OVARIES: TUMOR, VAGINA: TUMOR): active; positive
carcinogen call (Species: RAT, Strain/Sex: CD-1/MALE, Route: GAVAGE, Dose: 0, 1, 3, 9 (WK 1-25), 6 (WK 26-46), 5 (WK 47-106) MG/KG IN 0.8% METHOCEL(TOTAL VOLUME 0.2-0.5 ML/RAT 2/WK FOR 105 WK (ME, Dose: 0, 1, 3, 9 (WK 1-25), 6 (WK 26-46), 5 (WK 47-106) MG/KG IN 0.8% METHOCEL(TOTAL VOLUME 0.2-0.5 ML/RAT 2/WK FOR 105 WK (ME, Tumor Site: Type of Lesion: ADRENAL GLAND: TUMOR, TESTES: TUMOR): active; positive

ClC(Cl)=C(Cl)Cl
carcinogen call (Species: MOUSE, Strain/Sex: B6C3F1/FEMALE, Route: GAVAGE, Dose: 0, 386, 772 MG/KG, TWA FOR 78 WKS, Dose: 0, 386, 772 MG/KG, TWA FOR 78 WKS, Tumor Site: Type of Lesion: LIVER: HEPATOCELLULAR CARCINOMA): active; positive
carcinogen call (Species: MOUSE, Strain/Sex: B6C3F1/FEMALE, Route: INHALATION, Dose: 0, 100, 200 PPM 6 HR/D, 5 D/WK FOR 103 WK, Dose: 0, 100, 200 PPM 6 HR/D, 5 D/WK FOR 103 WK, Tumor Site: Type of Lesion: LIVER: HEPATOCELLULAR CARCINOMA, HEPATOCELLULAR ADENOMA OR CARCINOMA): active; positive
carcinogen call (Species: MOUSE, Strain/Sex: B6C3F1/MALE, Route: GAVAGE, Dose: 0, 536, 1072 MG/KG, TWA FOR 78 WKS, Dose: 0, 536, 1072 MG/KG, TWA FOR 78 WKS, Tumor Site: Type of Lesion: LIVER: HEPATOCELLULAR CARCINOMA): active; positive
carcinogen call (Species: MOUSE, Strain/Sex: B6C3F1/MALE, Route: INHALATION, Dose: 0, 100, 200 PPM 6 HR/D, 5 D/WK FOR 103 WK, Dose: 0, 100, 200 PPM 6 HR/D, 5 D/WK FOR 103 WK, Tumor Site: Type of Lesion: LIVER: HEPATOCELLULAR ADENOMA, HEPATOCELLULAR CARCINOMA): active; positive
carcinogen call (Species: RAT, Strain/Sex: F344/FEMALE, Route: INHALATION, Dose: 0, 200, 400 PPM 6 HR/D, 5 D/WK FOR 103 WK, Dose: 0, 200, 400 PPM 6 HR/D, 5 D/WK FOR 103 WK, Tumor Site: Type of Lesion: HEMATOPOIETIC SYSTEM: MONONUCLEAR CELL LEUKEMIA): active; positive
carcinogen call (Species: RAT, Strain/Sex: F344/MALE, Route: INHALATION, Dose: 0, 200, 400 PPM 6 HR/D, 5 D/WK FOR 103 WK, Dose: 0, 200, 400 PPM 6 HR/D, 5 D/WK FOR 103 WK, Tumor Site: Type of Lesion: HEMATOPOIETIC SYSTEM: MONONUCLEAR CELL LEUKEMIA): active; positive

Cc1cc(C(C)(C)C)c(O)c(C(C)(C)C)c1
carcinogen call (Species: MOUSE, Strain/Sex: B6C3F1/FEMALE, Route: ORAL, Dose: 0, 3000, 6000 PPM IN DIET, Dose: 0, 3000, 6000 PPM IN DIET): inactive; negative
carcinogen call (Species: MOUSE, Strain/Sex: B6C3F1/MALE,FEMALE, Route: ORAL, Dose: 200, 1000, 5000 PPM IN DIET FOR 96 WK, Dose: 200, 1000, 5000 PPM IN DIET FOR 96 WK): inactive; negative
carcinogen call (Species: MOUSE, Strain/Sex: B6C3F1/MALE, Route: ORAL, Dose: 0, 3000, 6000 PPM IN DIET, Dose: 0, 3000, 6000 PPM IN DIET): inactive; negative
carcinogen call (Species: RAT, Strain/Sex: F344/FEMALE, Route: ORAL, Dose: 0, 3000, 6000 PPM IN DIET, Dose: 0, 3000, 6000 PPM IN DIET): inactive; negative
carcinogen call (Species: RAT, Strain/Sex: F344/MALE, Route: ORAL, Dose: 0, 3000, 6000 PPM IN DIET, Dose: 0, 3000, 6000 PPM IN DIET): inactive; negative

C=C(C)[C@H]1CC=C(C)C(=O)C1
carcinogen call (Species: MOUSE, Strain/Sex: B6C3F1/FEMALE, Route: GAVAGE, Dose: 0, 375, 750 MG/KG IN CORN OIL 5 D/WK FOR 103 WK (STUDY DURATION: 104 WK), Dose: 0, 375, 750 MG/KG IN CORN OIL 5 D/WK FOR 103 WK (STUDY DURATION: 104 WK)): inactive; negative
carcinogen call (Species: MOUSE, Strain/Sex: B6C3F1/MALE, Route: GAVAGE, Dose: 0, 375, 750 MG/KG IN CORN OIL 5 D/WK FOR 103 WK (STUDY DURATION: 104 WK), Dose: 0, 375, 750 MG/KG IN CORN OIL 5 D/WK FOR 103 WK (STUDY DURATION: 104 WK), Tumor Site: Type of Lesion: KIDNEY: TUBULAR CELL ADENOCARCINOMA): inactive; negative
